Measurements: patent US20160138077A1, “MONITORING AND ASSESSING DEACETYLASE ENZYME ACTIVITY” (THE GENERAL HOSPITAL CORPORATION, priority 2013, published 2016)

Key:
[1] = tested on: HeLa cells; experiment: Confocal fluorescence imaging of HDAC activity in HeLa cells; assay type: cell-based; conditions: 5 μM probe, 2 hours
Method: Imaging HDAC activity in HeLa cells with HP-1 and 2. An acid-washed, poly-lysine-treated sterile glass cover slip was added to each well of 6-well plate, and HeLa cells were plated at a seeding density of ˜2.5×10^5 cells/mL in 2 mL of growth medium. After 24 hours, the cells reached 80-85% confluence. For all experiments, solutions of HP-1 and HP-2 (200 mM each) were prepared in DMSO and diluted in HDAC buffer to a final concentration of 100 μM. SAHA solutions (100 mM) were prepared in DMSO and diluted in HDAC buffer to make a 100 μM solution. All solutions were prepared immediately prior to application to the cells. […]
Confocal fluorescence image acquisition and analysis. Confocal fluorescence imaging was performed with a Zeiss laser scanning microscope 710 with a 63× objective lens and Zen 2009 software (Carl Zeiss). […] The mean fluorescence intensity of 10 cells per coverslip was measured using ImageJ software. […] The mean background signal was also measured and subtracted from the mean fluorescence signal within the cells. Mean fluorescence intensities and standard deviations were plotted in Microsoft Excel.
Imaging HDAC activity in HeLa cells with HP-1 and 2. […] Cover slips were mounted on a drop of Gel Mount (anti-fade with DAPI nuclear stain) and analyzed by confocal imaging.
Confocal fluorescence imaging. […]

[2] = biological target: T1, Cathepsin B (Homo sapiens, UniProt P07858); experiment: LCMS assay of protease enzymatic action on HP-1; assay type: biochemical; conditions: −SAHA, 5 μM HP-1, 12 hours at 37° C.
T1 construct: purchased EMD Millipore
Method: (§1) The enzymatic cleavage of HP-1 was analyzed by performing LCMS assays with sirtuin 1 and 3 (Cayman Chemicals) and the proteases chymotrypsin (Sigma-Aldrich), cathepsin (EMD Millipore), and pepsin* (Sigma-Aldrich). Solutions containing (i) vehicle with DMSO in HDAC buffer, (ii) 5 μM HP-1 in HDAC buffer, and (iii) 5 μM HP-1 and the enzyme in HDAC buffer were incubated for 12 hours at 37° C. Following incubation, a 20 μL aliquot of supernatant from each sample was analyzed by LCMS. Deacetylation of HP-1 was investigated by screening for the DHP-1 (M+H)^+ ion following positive electrospray ionization. All assay samples were analyzed in triplicate. […]
(§2) HP-1 was not altered by sirtuins 1 and 3 or the proteases chymotrypsin, cathepsin and pepsin, as determined by LCMS. […] For Cathepsin B, the cleavage of the enzyme substrate, z-RR-pNA (Santa Cruz Biotechnology, Dallas, Tex.) was monitored using a Wallac EnVision 2103 Multilabel fluorescence plate reader (PerkinElmer, Waltham, Mass.) with a 405 nm excitation filter, a 406 nm emission filter, and a gain of 150. The cleavage of the pepsin substrate, Ac-Phe-Tyr-OH (Chem-Impex Inc.), was monitored by LCMS at pH 4. […]

[3] = biological target: T2, Chymotrypsin (Bos taurus, UniProt P00766); experiment: LCMS assay of protease enzymatic action on HP-1; assay type: biochemical; conditions: −SAHA, 5 μM HP-1, 12 hours at 37° C.
T2 construct: purchased Sigma-Aldrich
Method: as §1, §2

Compound: CC(=O)NC=CCCCCNC(=O)CCCCCNc1ccc([N+](=O)[O-])c2nonc12 [HP-1]
- intracellular NBD fluorescence ([1]; 10 μM SAHA added 15 min prior): reduces the level of fluorescence
- intracellular NBD fluorescence ([1]; absence of SAHA): robust intracellular fluorescent signal
- % HP-1 to DHP-1 [2]: 0%
- % HP-1 to DHP-1 [3]: 0%
